Data taken from ChEMBL document CHEMBL5506049, “Discovery of Novel Small-Molecule-Based Potential PD-L1/EGFR Dual Inhibitors with High Druggability for Glioblastoma Immunotherapy” (J Med Chem, 2024).

Assays:
U-251 = experiment: cells; settings: Homo sapiens, U-251, 72 h
Description: Antiproliferative activity against human U-251 cells incubated for 72 hrs by MTT assay

U-87 MG = experiment: cells; settings: Homo sapiens, 72 h
Description: Antiproliferative activity against human U-87 MG cells incubated for 72 hrs by MTT assay

cells [1] = settings: GL261, 72 h
Description: Antiproliferative activity against human GL261 cells incubated for 72 hrs by MTT assay

cells [2] = settings: Homo sapiens, U87MG Human EGFR vIII, 72 h
Description: Antiproliferative activity against human U87vIII cells expressing EGFRvIII incubated for 72 hrs by MTT assay

[3] = In vivo antitumor activity against […] GL261 cells xenografted in C57BL/6 mouse assessed as decrease in EGFR phosphorylation in tumor tissue at 100 mg/kg, IG treated for 21 days relative to control; assay type: functional; design: scale not given: the % may be the effect or the level left; settings: time 21 day
[4] = In vivo antitumor activity against […] GL261 cells xenografted in C57BL/6 mouse assessed as decrease in tumor weight at 100 mg/kg, IG treated for 21 days relative to control; assay type: functional; design: scale not given: the % may be the effect or the level left; settings: time 21 day
[5] = In vivo antitumor activity against […] GL261 cells xenografted in C57BL/6 mouse assessed as decrease in PD-L1 expression in tumor tissue at 100 mg/kg, IG treated for 21 days relative to control; assay type: functional; design: scale not given: the % may be the effect or the level left; settings: time 21 day
[6] = In vivo antitumor activity against […] GL261 cells xenografted in C57BL/6 mouse assessed as decrease in tumor volume at 100 mg/kg, IG treated for 21 days relative to control; assay type: functional; design: scale not given: the % may be the effect or the level left; settings: time 21 day
[7] = target: Programmed cell death protein 1/Programmed cell death 1 ligand 1 (Homo sapiens, UniProt Q9NZQ7); experiment: Inhibition of PD-1/PD-L1 (unknown origin) interaction assessed as inhibition rate incubated for 1 hr by HTRF assay relative to control; assay type: protein-complex assay
Glioblastoma cell line [8] = experiment: Antitumor immunity against glioblastoma bearing C57BL/6 mouse model assessed as tumor infiltrating lymphocytes by measuring increase in CD3+CD8+T cells at 100 mg/kg, IG (reference value: 3.44%); assay type: functional
Glioblastoma cell line [9] = experiment: Antitumor immunity against glioblastoma bearing C57BL/6 mouse model assessed as tumor infiltrating lymphocytes by measuring increase in CD3+CD4+T cells at 100 mg/kg, IG (reference value: 0.91%); assay type: functional

Chain of Programmed cell death protein 1/Programmed cell death 1 ligand 1 (Q15116 whole entry): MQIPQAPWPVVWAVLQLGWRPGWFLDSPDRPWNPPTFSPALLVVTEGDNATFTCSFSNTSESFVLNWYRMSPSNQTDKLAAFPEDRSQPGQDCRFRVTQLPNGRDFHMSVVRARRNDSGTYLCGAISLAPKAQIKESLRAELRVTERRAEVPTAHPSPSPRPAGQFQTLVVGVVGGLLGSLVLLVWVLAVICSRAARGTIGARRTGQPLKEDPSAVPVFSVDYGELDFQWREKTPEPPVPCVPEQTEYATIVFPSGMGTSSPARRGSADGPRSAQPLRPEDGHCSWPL
Chain of Programmed cell death protein 1/Programmed cell death 1 ligand 1 (Q9NZQ7 whole entry): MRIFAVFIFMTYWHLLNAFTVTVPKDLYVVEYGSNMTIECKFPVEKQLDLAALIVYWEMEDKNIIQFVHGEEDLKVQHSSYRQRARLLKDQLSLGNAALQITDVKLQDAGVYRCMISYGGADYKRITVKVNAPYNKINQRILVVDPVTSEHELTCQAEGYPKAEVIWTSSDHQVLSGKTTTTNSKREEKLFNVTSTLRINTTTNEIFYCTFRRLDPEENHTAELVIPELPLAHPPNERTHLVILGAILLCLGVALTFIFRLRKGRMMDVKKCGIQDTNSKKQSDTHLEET

## COc1nc(OCc2cccc(-c3ccccc3)c2C)ccc1CNCCNC(C)=O
U-251
  IC50: 2980 nM
U-87 MG
  IC50: 3720 nM
Cells [1]
  IC50: 5720 nM
Cells [2]
  IC50: 8030 nM

## COc1cc2ncnc(Nc3ccc(F)c(Cl)c3)c2cc1OC(=O)N1CCN(Cc2ccc(-c3cccc(-c4ccccc4)c3C)nc2OC)CC1
U-251
  IC50: > 20000 nM
U-87 MG
  IC50: > 20000 nM
Cells [1]
  IC50: > 20000 nM
Cells [2]
  IC50: > 20000 nM

## COc1cc2ncnc(Nc3ccc(F)c(Cl)c3)c2cc1OCCNCc1c(OC)cc(OCc2cccc(-c3ccccc3)c2C)cc1OC
U-251
  IC50: 1960 nM
U-87 MG
  IC50: 3330 nM
Cells [1]
  IC50: 3220 nM
Cells [2]
  IC50: 2840 nM

## COc1cc2ncnc(Nc3ccc(F)c(Cl)c3)c2cc1OCCCCNCc1ccc(-c2cccc(-c3ccccc3)c2C)nc1OC
U-251
  IC50: 2850 nM
U-87 MG
  IC50: 1030 nM
Cells [1]
  IC50: 2720 nM
Cells [2]
  IC50: 2610 nM

## COc1cc2ncnc(Nc3ccc(F)c(Cl)c3)c2cc1OCCCCNC(=O)C1CCCCN1Cc1ccc(-c2cccc(-c3ccccc3)c2C)nc1OC (configuration not stated)
U-251
  IC50: > 20000 nM
U-87 MG
  IC50: > 20000 nM
Cells [1]
  IC50: > 20000 nM
Cells [2]
  IC50: > 20000 nM

## COc1cc2ncnc(Nc3ccc(F)c(Cl)c3)c2cc1OCCCCCCCCNC(=O)CN(C)Cc1c(OC)cc(OCc2cccc(-c3ccccc3)c2C)cc1OC
U-251
  IC50: > 20000 nM
U-87 MG
  IC50: > 20000 nM
Cells [1]
  IC50: > 20000 nM
Cells [2]
  IC50: > 20000 nM

## COc1cc(OCc2cccc(-c3ccccc3)c2C)ccc1CNCCCOc1cc2c(Nc3ccc(F)c(Cl)c3)ncnc2cc1OC
U-251
  IC50: 3490 nM
U-87 MG
  IC50: 4010 nM
Cells [1]
  IC50: 5460 nM
Cells [2]
  IC50: 960 nM

## COc1cc2ncnc(Nc3ccc(F)c(Cl)c3)c2cc1OCCCCNCc1c(OC)cc(OCc2cccc(-c3ccccc3)c2C)cc1OC
U-251
  IC50: 1330 nM
U-87 MG
  IC50: 860 nM
Cells [1]
  IC50: 1790 nM
Cells [2]
  IC50: 360 nM

## COc1cc2ncnc(Nc3ccc(F)c(Cl)c3)c2cc1OCCCN1CCOCC1 [GEFITINIB]
[3]
  Activity: ~30%
[4]
  Activity: 77.2%
[5]
  Activity: ~15%
[6]
  Activity: 71.2%

## COc1cc2ncnc(Nc3ccc(F)c(Cl)c3)c2cc1OCCCCCCNCc1c(OC)cc(OCc2cccc(-c3ccccc3)c2C)cc1OC
U-251
  IC50: 1550 nM
U-87 MG
  IC50: 2850 nM
Cells [1]
  IC50: 2760 nM
Cells [2]
  IC50: 540 nM

## COc1cc2ncnc(Nc3ccc(F)c(Cl)c3)c2cc1OCCCCCNC(=O)C1CCCCN1Cc1c(OC)cc(OCc2cccc(-c3ccccc3)c2C)cc1OC (configuration not stated)
U-251
  IC50: > 20000 nM
U-87 MG
  IC50: > 20000 nM
Cells [1]
  IC50: > 20000 nM
Cells [2]
  IC50: > 20000 nM

## COc1cc2ncnc(Nc3ccc(F)c(Cl)c3)c2cc1OCCCCCNCc1ccc(-c2cccc(-c3ccccc3)c2C)nc1OC
U-251
  IC50: 1350 nM
U-87 MG
  IC50: 3380 nM
Cells [1]
  IC50: 2160 nM
Cells [2]
  IC50: 530 nM

## COc1cc(OCc2cccc(-c3ccccc3)c2C)ccc1CNCCCCOc1cc2c(Nc3cccc(Cl)c3F)ncnc2cc1OC
U-251
  IC50: 1290 nM
U-87 MG
  IC50: 840 nM
Cells [1]
  IC50: 1240 nM
Cells [2]
  IC50: 290 nM

## COc1cc2ncnc(Nc3ccc(F)c(Cl)c3)c2cc1OCCCNCc1c(OC)cc(OCc2cccc(-c3ccccc3)c2C)cc1OC
U-251
  IC50: 1470 nM
U-87 MG
  IC50: 1060 nM
Cells [1]
  IC50: 2390 nM
Cells [2]
  IC50: 1390 nM

## COc1cc2ncnc(Nc3ccc(F)c(Cl)c3)c2cc1OCCCNCc1ccc(-c2cccc(-c3ccccc3)c2C)nc1OC
U-251
  IC50: 5120 nM
U-87 MG
  IC50: 1080 nM
Cells [1]
  IC50: 2630 nM
Cells [2]
  IC50: 820 nM

## COc1cc2ncnc(Nc3ccc(F)c(Cl)c3)c2cc1OCCCCCNC(=O)CN(C)Cc1c(OC)cc(OCc2cccc(-c3ccccc3)c2C)cc1OC
U-251
  IC50: > 20000 nM
U-87 MG
  IC50: 5160 nM
Cells [1]
  IC50: > 20000 nM
Cells [2]
  IC50: 3120 nM

## COc1cc2ncnc(Nc3ccc(F)c(Cl)c3)c2cc1OCCCCCCNC(=O)CCN(C)Cc1ccc(-c2cccc(-c3ccccc3)c2C)nc1OC
U-251
  IC50: > 20000 nM
U-87 MG
  IC50: > 20000 nM
Cells [1]
  IC50: > 20000 nM
Cells [2]
  IC50: > 20000 nM

## Cc1c(COc2cc(OCc3cccc(C#N)c3)c(CNC(C)(C)C(=O)O)cc2Cl)cccc1-c1ccccc1
[7]
  IC50: 56.2 nM
Glioblastoma cell line [8]
  Activity: 19.7%
U-251
  IC50: > 20000 nM
[4]
  Activity: 77.2%
U-87 MG
  IC50: > 20000 nM
[6]
  Activity: 71.1%
Glioblastoma cell line [9]
  Activity: 24.7%
Cells [1]
  IC50: > 20000 nM
Cells [2]
  IC50: > 20000 nM

## COc1cc2ncnc(Nc3ccc(F)c(Cl)c3)c2cc1OCCCCCNCc1c(OC)cc(OCc2cccc(-c3ccccc3)c2C)cc1OC
U-251
  IC50: 1040 nM
U-87 MG
  IC50: 1350 nM
Cells [1]
  IC50: 2240 nM
Cells [2]
  IC50: 440 nM

## COc1cc2ncnc(Nc3ccc(F)c(Cl)c3)c2cc1OCCCCCCNC(=O)C1CCCCN1Cc1ccc(OCc2cccc(-c3ccccc3)c2C)c(C)c1 (configuration not stated)
U-251
  IC50: > 20000 nM
U-87 MG
  IC50: > 20000 nM
Cells [1]
  IC50: > 20000 nM
Cells [2]
  IC50: > 20000 nM

## COc1cc2ncnc(Nc3ccc(F)c(Cl)c3)c2cc1OCCNCc1ccc(-c2cccc(-c3ccccc3)c2C)nc1OC
U-251
  IC50: 2640 nM
U-87 MG
  IC50: 5760 nM
Cells [1]
  IC50: 6860 nM
Cells [2]
  IC50: 1140 nM

## COc1cc2ncnc(Nc3ccc(F)c(Cl)c3)c2cc1OC(=O)N1CCN(Cc2c(OC)cc(OCc3cccc(-c4ccccc4)c3C)cc2OC)CC1
U-251
  IC50: > 20000 nM
U-87 MG
  IC50: > 20000 nM
Cells [1]
  IC50: > 20000 nM
Cells [2]
  IC50: > 20000 nM

## COc1cc2ncnc(Nc3ccc(F)c(Cl)c3)c2cc1OCCCCCCCCNCc1ccc(-c2cccc(-c3ccccc3)c2C)nc1OC
U-251
  IC50: 3530 nM
U-87 MG
  IC50: 1150 nM
Cells [1]
  IC50: 3300 nM
Cells [2]
  IC50: 2010 nM

## COc1cc2ncnc(Nc3ccc(F)c(Cl)c3)c2cc1OCCCCCCNCc1ccc(-c2cccc(-c3ccccc3)c2C)nc1OC
U-251
  IC50: 1870 nM
U-87 MG
  IC50: 1080 nM
Cells [1]
  IC50: 3250 nM
Cells [2]
  IC50: 730 nM

## COc1cc2ncnc(Nc3ccc(F)c(Cl)c3)c2cc1OCCCCNCc1ccc(OCc2cccc(-c3ccccc3)c2C)c(C)c1
U-251
  IC50: 1380 nM
U-87 MG
  IC50: 890 nM
Cells [1]
  IC50: 2250 nM
Cells [2]
  IC50: 730 nM

## COc1cc2ncnc(Nc3ccc(F)c(Cl)c3)c2cc1OCCCCCNC(=O)C1CCCCN1Cc1ccc(-c2cccc(-c3ccccc3)c2C)nc1OC (configuration not stated)
U-251
  IC50: > 20000 nM
U-87 MG
  IC50: > 20000 nM
Cells [1]
  IC50: > 20000 nM
Cells [2]
  IC50: > 20000 nM

## COc1cc(OCc2cccc(-c3ccccc3)c2C)ccc1CNCCCCOc1cc2c(Nc3ccc(F)c(Cl)c3)ncnc2cc1OC
U-251
  IC50: 1470 nM
U-87 MG
  IC50: 2600 nM
Cells [1]
  IC50: 1970 nM
Cells [2]
  IC50: 800 nM

## COc1cc2ncnc(Nc3ccc(F)c(Cl)c3)c2cc1OCCCCCCNC(=O)C1CCCCN1Cc1c(OC)cc(OCc2cccc(-c3ccccc3)c2C)cc1OC (configuration not stated)
U-251
  IC50: > 20000 nM
U-87 MG
  IC50: > 20000 nM
Cells [1]
  IC50: > 20000 nM
Cells [2]
  IC50: > 20000 nM
